The record followed here is ChEMBL document CHEMBL4627275, “Inhibition of cholesteryl ester synthesis by polyacetylenes from Atractylodes rhizome” (Bioorg Med Chem Lett, 2020).

Active and inactive are the calls of the source. No cut-off for these calls is given here.

Assay [1] in a line: (§1) Inhibition of SOAT in CHOK1 microsomes. More on the design: species or system Cricetulus griseus. Conditions: cho-k1.
In assay [2] the test system is CHO-K1. Put plainly: Inhibition of [14C]triglyceride biosynthesis in CHOK1 cells using [14C]Oleic acid as substrate after 6 hrs by TLC method. The assay is classed as functional, cell-based. To be noted: Cricetulus griseus, CHO-K1, 6 h.
In assay [3] the test system is CHO-K1. Put plainly: Cytotoxicity against CHOK1 cells assessed as reduction in cell viability. The format is cell-based. Conditions: Cricetulus griseus.
Assay [4] has as its system CHO-K1. Kind of assay: Effect on lipid droplet accumulation in CHOK1 cells at >100 uM preincubated with oleic acid for 12 hrs followed by replacement of fresh medium containing compounds and measured after 6 hrs by oil red O staining based confocal laser scanning microscopy. The format is functional, cell-based. Conditions: Cricetulus griseus.
For assay [5], the system named is CHO-K1. Put plainly: Inhibition of [14C]cholesterol ester biosynthesis in CHOK1 cells using [14C]Oleic acid as substrate after 6 hrs by TLC method. The assay is classed as functional, cell-based. Conditions: Cricetulus griseus, CHO-K1, 6 h.
Assay [6] concerns the target T1, Sterol O-acyltransferase 2 (Homo sapiens, UniProt O75908).
T1 sequence (O75908 whole entry): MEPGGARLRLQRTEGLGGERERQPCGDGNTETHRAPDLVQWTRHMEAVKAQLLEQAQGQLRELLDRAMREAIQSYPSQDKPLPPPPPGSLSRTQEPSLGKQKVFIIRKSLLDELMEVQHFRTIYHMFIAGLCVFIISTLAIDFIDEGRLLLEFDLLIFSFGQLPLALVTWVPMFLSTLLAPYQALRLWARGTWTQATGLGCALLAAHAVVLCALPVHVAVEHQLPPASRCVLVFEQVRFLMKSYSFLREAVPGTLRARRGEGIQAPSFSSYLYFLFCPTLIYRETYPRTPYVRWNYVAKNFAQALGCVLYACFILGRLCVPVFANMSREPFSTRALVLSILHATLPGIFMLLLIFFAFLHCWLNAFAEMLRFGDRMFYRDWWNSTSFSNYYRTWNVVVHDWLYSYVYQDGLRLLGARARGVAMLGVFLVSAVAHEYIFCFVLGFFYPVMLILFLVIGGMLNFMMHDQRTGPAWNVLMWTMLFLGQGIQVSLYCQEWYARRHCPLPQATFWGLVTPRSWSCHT
Put plainly: Inhibition of human SOAT2-mediated [14C]Cholesterol ester biosynthesis in CHO microsomal fraction after 5 mins in presence of [1-14C]oleoyl-CoA by TLC analysis.

The target of assay [7] is T1, Sterol O-acyltransferase 2. Kind of assay: Inhibition of human SOAT2-mediated [14C]Cholesterol ester synthesis in CHO cells after 6 hrs in presence of [14C]Oleic acid by TLC analysis. The format is cell-based.
In assay [8] the test system is CHO-K1. The assay is described as §1. To be noted: Cricetulus griseus.
Assay [9] concerns the target T2, Sterol O-acyltransferase 1 (Homo sapiens, UniProt P35610).
T2 sequence (P35610 whole entry): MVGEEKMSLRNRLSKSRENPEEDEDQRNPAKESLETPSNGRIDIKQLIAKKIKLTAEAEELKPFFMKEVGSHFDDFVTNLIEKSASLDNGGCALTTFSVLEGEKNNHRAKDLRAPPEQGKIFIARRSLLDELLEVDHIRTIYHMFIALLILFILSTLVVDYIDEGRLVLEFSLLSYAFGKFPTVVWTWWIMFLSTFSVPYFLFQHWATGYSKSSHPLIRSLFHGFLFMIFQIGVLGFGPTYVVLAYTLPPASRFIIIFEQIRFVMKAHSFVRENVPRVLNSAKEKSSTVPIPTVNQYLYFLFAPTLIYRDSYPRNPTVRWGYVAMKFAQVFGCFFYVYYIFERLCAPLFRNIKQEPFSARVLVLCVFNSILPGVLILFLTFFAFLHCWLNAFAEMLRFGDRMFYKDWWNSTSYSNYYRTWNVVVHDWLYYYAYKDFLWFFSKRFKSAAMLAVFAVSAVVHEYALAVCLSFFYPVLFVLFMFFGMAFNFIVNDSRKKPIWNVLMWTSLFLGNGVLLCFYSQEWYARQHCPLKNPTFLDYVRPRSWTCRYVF
Kind of assay: Inhibition of human SOAT1 mediated [14C]Cholesterol ester synthesis in CHO cells after 6 hrs in presence of [14C]Oleic acid by TLC analysis. The format is cell-based.

Assay [10] deals with T2, Sterol O-acyltransferase 1. Put plainly: Inhibition of human SOAT1-mediated [14C]Cholesterol ester biosynthesis in CHO microsomal fraction after 5 mins in presence of [1-14C]oleoyl-CoA by TLC analysis.

`C=C1CCC[C@]2(C)C[C@]3(O)OC(=O)C(C)=C3C[C@@H]12` [ATRACTYLENOLIDE III]: the IC50 was 211 µM in assay [1]; > 195 µM in assay [2]; > 195 µM in [3]; 73.5 µM in [5]; 101 µM in assay [6]; 187 µM in assay [7]. Besides, the result in [4] was inactive.

Regarding `CC(=O)OCCC(/C=C/C=C/C#CC#C/C=C/CO)OC(=O)C=C(C)C` (configuration not stated), the inhibition entry in assay [8] is “Dose-dependent effect”. The IC50 is 29 µM in assay [1]; > 136 µM in assay [2]; 111 µM in [3]; 32.8 µM in assay [9]; 4.7 µM in assay [10]; 35.4 µM in assay [5]. Further, the half-inhibitory concentration (IC50) in assay [6] is 11.5 µM; in [7], 36.2 µM. Moreover, the result in [4] was inactive.

The term IC50 denotes the concentration at which inhibition is half-maximal.
